Patent US20050148044A1 (priority 1999, published 2005)
Values joined by “and” are separate entries in the source; they are usually repeats but may differ in a detail not shown here. Equal values may be shown once. “Also recorded” adds a separate entry of the source.

Columns and labels:
Citrobacter [1] = format: cell-based
C. perfringens [2] = format: cell-based, Clostridium perfringens
Bacteroides fragilis = format: cell-based
E. coli [3] = format: cell-based
C. butyricum [4] = format: cell-based, Clostridium butyricum
C. butyricum [5] = format: cell-based, Clostridium butyricum; remark: listed apart in the source
Citrobacter [6] = format: cell-based; remark: listed apart in the source
B. fragilis = format: cell-based, Bacteroides fragilis
C. perfringens [7] = format: cell-based, Clostridium perfringens; remark: listed apart in the source
E. coli [8] = format: cell-based; remark: listed apart in the source
Bifidobacterium bifidum = format: cell-based; parameters: key to intensity of the halo / reduction in the microorganisms: Ø: without halo; + → +++: intensity of the halo; + → +++: intensity of the halo; + → +++: intensity of the halo; ↓: reduction in the microorganisms (here by 90%)
B. dentium = format: cell-based; parameters: key: Ø: without halo; + → +++: intensity of the halo; + → +++: intensity of the halo; + → +++: intensity of the halo; ↓: reduction in the microorganisms (here by 90%)
B. longum = format: cell-based; parameters: key: Ø: without halo; + → +++: intensity of the halo; + → +++: intensity of the halo; + → +++: intensity of the halo; ↓: reduction in the microorganisms (here by 90%)

5-bromo-4-chloro-3-indolyl-β-D-galactopyranoside [X-Gal]
color of the colonies (Citrobacter [1]): cream-colored
colors due to the hydrolysis of the substrate (C. perfringens [2]): difficult to see
halos around the colonies (C. perfringens [2]): blue-gray halos
relative intensity of the color of the colonies (3 to 0) (C. perfringens [2]): 3
relative intensity of the color of the colonies (3 to 0) (Bacteroides fragilis): 2
color of the colonies (E. coli [3]): all blue
relative intensity of the color of the colonies (3 to 0) (E. coli [3]): 3

OC[C@@H]1O[C@@H](Oc2c[nH]c3cc(Cl)c(Br)cc23)[C@@H](O)[C@@H](O)[C@H]1O [Mag-Gal]
color of the colonies (Citrobacter [1]): cream-colored and pink
relative intensity of the color of the colonies (3 to 0) (Citrobacter [1]): 1 and 2
relative intensity of the color of the colonies (3 to 0) (C. perfringens [2]): 3
growth of the colonies (C. butyricum [4]): did not grow
relative intensity of the color of the colonies (3 to 0) (C. butyricum [4]): 2
relative intensity of the color of the colonies (3 to 0) (Bacteroides fragilis): 1
relative intensity of the color of the colonies (3 to 0) (E. coli [3]): 2

O=P(O)(O)Oc1c[nH]c2cc(Cl)c(Br)cc12 [Mag-Phos]
color of the colonies (Citrobacter [1]): cream-colored (darker center); also recorded: pink (pink agar)
relative intensity of the color of the colonies (3 to 0) (Citrobacter [1]): 2 and 3
colors due to the hydrolysis of the substrate (C. perfringens [2]): difficult to see
relative intensity of the color of the colonies (3 to 0) (C. perfringens [2]): 3 and 2
color of the colonies (Bacteroides fragilis): cream-pink; also recorded: cream-colored with a brownish halo
color of the colonies (E. coli [3]): cream-colored (darker center); also recorded: pink (pink agar)
relative intensity of the color of the colonies (3 to 0) (E. coli [3]): 2 and 3

OC[C@H]1O[C@H](Oc2c[nH]c3cc(Cl)c(Br)cc23)[C@H](O)[C@@H](O)[C@H]1O [Mag-α-Gal]
color of the colonies (Citrobacter [1]): cream-colored; also recorded: darker or light cream-colored
color of the colonies (C. perfringens [2]): cream-colored and pink
color of the colonies (C. butyricum [4]): cream-colored; also recorded: darker or light cream-colored
color of the colonies (E. coli [3]): darker or light cream-colored; also recorded: cream-colored

O=P(O)(O)Oc1c[nH]c2ccc(Br)c(Cl)c12 [X-Phos]
relative intensity of the color of the colonies (3 to 0) (Citrobacter [1]): 3
color of the colonies (C. perfringens [2]): greenish cream-colored with a slight blue halo
relative intensity of the color of the colonies (3 to 0) (C. perfringens [2]): 2
color of the colonies (C. butyricum [4]): cream-colored; also recorded: cream-colored with a very light halo near the colony and then blue at the periphery
growth of the colonies (C. butyricum [4]): did not grow
relative intensity of the color of the colonies (3 to 0) (C. butyricum [4]): 2
color of the colonies (Bacteroides fragilis): cream-colored when they are isolated, blue in group; also recorded: deep cream-colored, light brown
relative intensity of the color of the colonies (3 to 0) (Bacteroides fragilis): 1 and 2
color of the colonies (E. coli [3]): very light greenish cream-colored; also recorded: darker
relative intensity of the color of the colonies (3 to 0) (E. coli [3]): 2 and 3

CC(=O)N[C@H]1[C@H](Oc2c[nH]c3ccc(Br)c(Cl)c23)O[C@H](CO)[C@@H](O)[C@@H]1O [X-acglmn]
color of the colonies (Citrobacter [1]): cream-colored
color of the colonies (C. perfringens [2]): cream-colored; also recorded: very slightly greenish cream-colored
color of the colonies (Bacteroides fragilis): cream-colored
color of the colonies (E. coli [3]): cream-colored

OC[C@H]1O[C@@H](Oc2c[nH]c3ccc(Br)c(Cl)c23)[C@H](O)[C@@H](O)[C@@H]1O [X-glu]
colors due to the hydrolysis of the substrate (C. perfringens [2]): difficult to see

O=C(O)[C@H]1O[C@@H](Oc2c[nH]c3ccc(Br)c(Cl)c23)[C@H](O)[C@@H](O)[C@@H]1O [X-glucu]
colors due to the hydrolysis of the substrate (C. perfringens [2]): difficult to see

N[C@@H]1CON=C1O [cycloserine]
growth in the presence of antibiotic (C. butyricum [5]): grow
growth in the presence of antibiotic (Citrobacter [6]): grow
growth in the presence of antibiotic (B. fragilis): grow
growth in the presence of antibiotic (C. perfringens [7]): grow
growth in the presence of antibiotic (E. coli [8]): grow

ammoniacal iron citrate [AIC]
bacterial count (Bifidobacterium bifidum): reduction in the number of microorganisms
halo around the colonies (Bifidobacterium bifidum): more intense; also recorded: became visible
intensity of the halo (Bifidobacterium bifidum): + and ++ and +++↓
reduction in the microorganisms (Bifidobacterium bifidum): +++↓
intensity of the halo (B. dentium): + and ++
intensity of the halo (B. longum): + and ++
